Experimental findings from patent US20090238761A1, “Novel Aryl Piperazine Derivatives With Medical Utility” (Universita Degli Studi Di Siena, priority 2005, published 2009) are described below.

Each structure is given as a SMILES string.

Usually melting point stands for the temperature of the solid-liquid transition. As for `Cc1cccc(N2CCN(CCCCNC(=O)c3cc4ccccc4o3)CC2)c1C`, the melting point was in the range of 151 to 152 °C.

The compound `Cc1cccc(N2CCN(CCCCNC(=O)c3ccccc3)CC2)n1` gave a melting point of 102 to 103 °C.

`O=C(NCCCCN1CCN(c2ccccc2)CC1)c1cc2ccccc2o1` gave a melting point of 149 to 150 °C.

The compound `Cc1cccc(N2CCN(CCCCN3CCn4c(cc5ccccc54)C3=O)CC2)c1` [Compound 1-11] showed a melting point of 155 to 156 °C.

In the case of `Cc1cccc(N2CCN(CCCCCOc3cc4ccccc4cn3)CC2)c1` [Compound 1-12, 3-[5-(4-m-Tolylpiperazin-1-yl)pentyloxy]isoquinoline], the melting point was 94 to 95 °C.

Consider `O=C1c2cc3ccccc3n2CCN1CCCCN1CCN(c2cccc(Cl)c2)CC1` [Compound 1-9, 2-[4-[4-(3-Chlorophenyl)piperazin-1-yl]butyl]-3,4-dihydropyrazino[1,2-a]indol-1(2H)-one], for which the melting point is 180 to 181 °C.

In turn, `Cc1cccc(N2CCN(CCCCNC(=O)c3cc4ccccc4o3)CC2)n1` had a melting point of 107 to 109 °C.

In the case of `COc1cccc(N2CCN(CCCCNC(=O)c3ccccc3)CC2)n1`, the melting point lay in the range of 120 to 121 °C.

For the compound `O=C(NCCCCN1CCN(c2cnc3ccccc3c2)CC1)c1ccccc1`, the melting point is 124 to 125 °C.

As for `COc1cccc(N2CCN(CCCCNC(=O)c3cc4ccccc4o3)CC2)c1`, the melting point lay in the range of 104 to 105 °C.

Compound `Cc1cccc(N2CCN(CCCCNC(=O)c3ccccc3)CC2)c1` [Compound 1-46, N-(4-(4-m-Tolylpiperazin-1-yl)butyl)benzamide] returned a melting point of 126 to 127 °C.

Regarding `O=C(NCCCCN1CCN(c2ccccc2)CC1)c1cccnc1`, the melting point was 119 to 120 °C.

Consider `COc1cccc(N2CCN(CCCCNC(=O)c3ccccc3)CC2)c1` [Compound 1-45, N-(4-(4-(3-Methoxyphenyl)piperazin-1-yl)butyl)benzamide], for which the melting point lay within 111 to 112 °C.

`O=C(NCCCCN1CCN(c2cnc3ccccc3c2)CC1)c1cc2ccccc2cn1` gave a melting point of 153 to 154 °C.
